Test results from patent US9260759B2, “Pyrazoloanthrone and derivatives thereof for the treatment of cancers expressing MISRII” (The General Hospital Corporation, priority 2007, dated 2016).

How the values were obtained:
Type in all cases: cell-based
[1] = target: T1, BMP type II receptor (BMPRII) (Homo sapiens, UniProt Q13873); assay: BRE-luciferase reporter assay in COS7 cells transfected with BMP type II receptor; conditions: cotreatment with BMP2 and 10 μM SP600125, BMPRII-transfected COS7
T1 construct: expressed in transfected cells; host or cells: COS7
T1 sequence (Q13873 27-1038): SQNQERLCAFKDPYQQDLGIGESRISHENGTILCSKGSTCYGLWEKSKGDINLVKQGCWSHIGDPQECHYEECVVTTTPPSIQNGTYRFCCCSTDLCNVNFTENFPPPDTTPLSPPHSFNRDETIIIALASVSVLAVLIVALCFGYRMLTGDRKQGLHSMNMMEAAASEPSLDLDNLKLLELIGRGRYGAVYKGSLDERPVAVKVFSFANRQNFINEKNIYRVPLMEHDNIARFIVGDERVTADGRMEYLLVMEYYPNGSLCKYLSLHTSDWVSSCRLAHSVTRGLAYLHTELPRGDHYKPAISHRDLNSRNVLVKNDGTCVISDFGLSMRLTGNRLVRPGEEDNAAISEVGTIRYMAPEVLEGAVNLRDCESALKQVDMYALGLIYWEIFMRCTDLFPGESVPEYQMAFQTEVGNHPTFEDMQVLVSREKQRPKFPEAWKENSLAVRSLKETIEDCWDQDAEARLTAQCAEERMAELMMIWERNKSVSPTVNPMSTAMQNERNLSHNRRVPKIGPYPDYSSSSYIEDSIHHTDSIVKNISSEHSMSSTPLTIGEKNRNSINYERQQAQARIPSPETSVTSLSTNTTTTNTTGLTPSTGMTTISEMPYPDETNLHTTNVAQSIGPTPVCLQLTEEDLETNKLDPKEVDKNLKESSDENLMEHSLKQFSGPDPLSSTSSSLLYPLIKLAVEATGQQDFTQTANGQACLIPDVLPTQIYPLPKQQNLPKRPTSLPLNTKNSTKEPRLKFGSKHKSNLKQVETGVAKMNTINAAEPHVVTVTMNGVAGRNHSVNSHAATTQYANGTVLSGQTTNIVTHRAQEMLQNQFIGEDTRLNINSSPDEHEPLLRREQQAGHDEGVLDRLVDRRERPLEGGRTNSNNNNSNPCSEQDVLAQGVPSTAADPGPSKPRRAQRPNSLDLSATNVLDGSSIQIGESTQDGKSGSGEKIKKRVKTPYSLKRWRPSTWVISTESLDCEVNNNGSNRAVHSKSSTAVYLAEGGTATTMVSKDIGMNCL

COS7 cells [2] = assay: MTT proliferation assay, untransfected COS7 cells (negative control); conditions: Chlorocebus aethiops, COS-7, 168 h, 7 days, read-out: IC50, inhibition of cell proliferation
Description: Cells were plated in 96-well plates and treated the day after. Seven days after plating the cell survival was measured using 3-(4,5-dimethylthiazol-2-yl)-2,5-diphenyltetrazolium bromide substrate and measuring the absorbance at 550 nm.
(Connolly, 2003). The 4306 cells were provided by Dr. Daniela Dinulescu, Brigham and Women's (Boston) (30). Cells were plated at a density of 1000 cells/well in 96-well plates and treated 24 h later. The cell proliferation was measured after 7 days by registering the absorbance at 550 nm. Paclitaxel was manufactured by Ivax Pharmaceuticals and obtained from the MGH pharmacy.
The cells were treated for 7 days and the proliferation was measured by spectrophotometry. To exclude cytotoxic effects on the cells unrelated to MIS signal transduction, we used untransfected COS7 cells as a negative control. […] Paclitaxel is used in treatment of a wide range of tumors, but the side effects can be debilitating (Pieretti-Vanmarcke, 2006a, Pieretti-Vanmarcke, 2006b).

COS7 cells [3] = assay: BRE-luciferase reporter assay in COS7 cells transfected with control plasmid (EGFP-N1) instead of MISRII; conditions: increasing doses, 24 h
Excerpt: COS7 cells were transiently transfected with MISRH, BRE-Luciferase and phRL-CMV. […] Control cells were transfected with a control plasmid (EGFP-N1 plasmid) instead of the receptor plasmid to keep the total DNA transfected constant. The results shown are the fold-induction over vehicle treated cells and normalized to phRL-CMV expression to correct for variations in cell number and transfection efficiency. […] The results represent the mean values from three independent experiments performed in triplicates (Error bars represent SEM, *p<0.05, **p<0.001).
COS7 cells were plated at a density of 5000 cells/well in 96-well plates for secondary screens. The day after plating cells were transfected with rat MISRII receptor or EGFP-N1 (Clontech, Mountain View Calif.) together with BRE firefly luciferase reporter construct and phRL-CMV using TransIT-LT1 transfection reagent (Mirus Bio Corporation, Madison Wis.). […] Results were obtained using the Dual Luciferase reporter assay according to the manufacturer's instructions (Promega). Plates were read in a Wallac Victor2 luminometer (PerkinElmer, Wellesley Mass.).

SMILES: O=C1c2ccccc2-c2n[nH]c3cccc1c23 [SP600125, anthra[1,9-cd]pyrazol-6(2H)-one]
- decrease of luciferase activity compared to BMP2 alone [1]: 25%
- IC50 (COS7 cells [2]): 9.5 µM
- induction of luciferase activity without MISRII (COS7 cells [3]): Only cells transfected with MISRII showed a significant induction
